Target: T1, human 11β-HSD1 (Homo sapiens, UniProt P28845)
T1 construct: truncated (24-287aa) human 11β-HSD1 enzyme; made in house; host or cells: E. coli (lysate, not purified)
Assay: Human 11β-HSD1 enzymatic SPA assay
Type: biochemical
Conditions: truncated (24-287aa) human 11β-HSD1, apparent Ki from IC50 by Cheng-Prusoff
Experimental: The ability of test compounds to inhibit human 11β-HSD1 enzymatic activity in vitro was evaluated in a Scintillation Proximity Assay (SPA). Tritiated-cortisone substrate, NADPH cofactor and titrated compound were incubated with truncated (24-287aa) human 11β-HSD1 enzyme at room temperature to allow the conversion to cortisol to occur. The reaction was stopped by adding a non-specific 11β-HSD inhibitor, glycyrrhetinic acid. The tritiated cortisol was captured by a mixture of an anti-cortisol monoclonal antibody and SPA beads coated with anti-mouse antibodies. The reaction plate was shaken at room temperature and the radiolabel bound to SPA beads was then measured on a scintillation counter. The 11β-HSD1 assay was carried out in 96-well microtiter plates in a total volume of […]. To start the assay, 188 μL of master mix which contained 75 nM ^3H-cortisone, 100 nM cortisone and 181 μM NADPH was added to the wells. In order to drive the reaction in the 11β-reductase direction, 1 mM glucose-6-phosphate (G-6-P) and 1 U/mL G-6-P dehydrogenase were also added as a NADPH generating system. Solid compound was dissolved in dimethyl sulfoxide to make a 10 mM stock followed by a subsequent 10-fold serial dilution with dimethyl sulfoxide. Each compound solution in dimethyl sulfoxide was 10-fold diluted in Tris/EDTA buffer (pH 7.4). 22 μL of titrated compound were then added in duplicate to the substrate. Reactions were initiated by the addition of 10 μL of 0.1 mg/mL E. coli lysates overexpressing 11β-HSD1 enzyme. After shaking and incubating plates for 30 minutes at room temperature, reactions were stopped by adding 10 μL of 1 mM glycyrrhetinic acid. The product, tritiated cortisol, was captured by adding 10 μL of 1 μM monoclonal mouse anti-cortisol antibodies and 50 μL of SPA beads coated with anti-mouse antibodies. After shaking for 30 minutes, plates were read in a Microbeta scintillation counter. Percent inhibition was calculated based on the background and the maximal signal. Wells that contained substrate without compound or enzyme were used as the background, while the wells that contained substrate and enzyme without any compound were considered as maximal signal. Percent of inhibition of each compound was calculated relative to the maximal signal and IC50 curves were generated. Assuming competitive inhibition the Cheng-Prusoff equation was used to calculate apparent Ki values from the IC50 values. This assay was applied to 11β-HSD2 as well, whereby 6 nM tritiated cortisol and 250 uM NAD^+ were used as substrate and cofactor, respectively.

T1 sequence (P28845 24-287): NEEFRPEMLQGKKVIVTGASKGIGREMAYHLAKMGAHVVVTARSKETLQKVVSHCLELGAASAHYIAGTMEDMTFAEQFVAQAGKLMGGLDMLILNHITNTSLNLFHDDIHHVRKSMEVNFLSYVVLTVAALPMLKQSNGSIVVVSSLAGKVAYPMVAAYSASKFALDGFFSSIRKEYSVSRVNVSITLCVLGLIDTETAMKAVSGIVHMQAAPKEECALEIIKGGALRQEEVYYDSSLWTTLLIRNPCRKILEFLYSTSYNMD

| Ki [nM] | Compound |
| --- | --- |
| > 1000 | [H]/N=C(/NC1C2CC3CC1CC(C(N)=O)(C3)C2)C(C)(C)Oc1ccccc1 (centres unmarked) [Example 76, (E)-4-[(2-methyl-2-phenoxypropanimidoyl)amino]adamantane-1-carboxamide] |
| 100 to 1000 | CC(C)(Oc1ccc(Cl)cn1)/C(=N\C#N)N[C@@H]1[C@@H]2C[C@@H]3C[C@H]1C[C@@](O)(C3)C2 [Example 58, (1E)-2-[(5-chloropyridin-2-yl)oxy]-N′-cyano-N-[(E)-5-hydroxyadamantan-2-yl]-2-methylpropanimidamide] |
| 10 to 100 | CC(C)(Oc1ccc(F)cc1F)/C(=N\C#N)N[C@@H]1[C@@H]2C[C@@H]3C[C@H]1C[C@@](C#N)(C3)C2 [Example 52, (1E)-N′-cyano-N-[(E)-5-cyanoadamantan-2-yl]-2-(2,4-difluorophenoxy)-2-methylpropanimidamide] |
| 10 to 100 | COC(=O)C12CC3CC(C1)C(NC(=S)C(C)(C)N1CCN(c4ccc(C(F)(F)F)cn4)CC1)C(C3)C2 (centres unmarked) [Example 21, Methyl(E)-4-[(2-methyl-2-{4-[5-(trifluoromethyl)pyridin-2-yl]piperazin-1-yl}propanethioyl)amino]adamantane-1-carboxylate] |
| 10 to 100 | CC(C)(Oc1ccc(Cl)cc1)/C(=N\C#N)NC12CC3CC(CC1C3)C2 [Example 38, (1E)-2-(4-Chlorophenoxy)-N′-cyano-N-hexahydro-2,5-methanopentalen-3a(1H)-yl-2-methylpropanimidamide] |
| ≤ 10 | CC(C)(Oc1ccccc1F)C(=NC#N)NC1C2CC3CC1CC(O)(C3)C2 (centres unmarked) [Example 80, (1E)-N′-cyano-2-(2-fluorophenoxy)-N-[(E)-5-hydroxyadamantan-2-yl]-2-methylpropanimidamide] |
| > 1000 | N#CN=C(Cc1ccc(F)cc1F)NC1C2CC3CC1CC(O)(C3)C2 (centres unmarked) [Example 4, (1E)-N′-Cyano-2-(2,4-difluorophenyl)-N-[(E)-5-hydroxy-2-adamantyl]ethanimidamide] |
| > 1000 | N#CN=C(COc1ccc(Cl)cc1)NC1C2CC3CC1CC(O)(C3)C2 (centres unmarked) [Example 7, (1E)-2-(4-Chlorophenoxy)-N′-cyano-N-[(E)-5-hydroxy-2-adamantyl]ethanimidamide] |
| ≤ 10 | CC(C)(OCc1ccc(C(F)(F)F)cc1)C(=NC#N)NC1C2CC3CC1CC(C#N)(C3)C2 (centres unmarked) [Example 27, (1E)-N-Cyano-N-[(E)-5-cyano-2-adamantyl]-2-methyl-2-{[4-(trifluoromethyl)benzyl]oxy}propanimidamide] |
| 100 to 1000 | CC1(C)/C(=N/C#N)N([C@@H]2[C@@H]3C[C@@H]4C[C@H]2C[C@@](S(C)(=O)=O)(C4)C3)CC1COc1ccc(C#N)cn1 (some centres unmarked) [Example 33, (2Z)-4-{[(5-Cyanopyridin-2-yl)oxy]methyl}-3,3-dimethyl-1-[(E)-5-(methylsulfonyl)-2-adamantyl]pyrrolidin-2-ylidenecyanamide] |
| 10 to 100 | CC(C)(Oc1ccc(F)cc1Cl)/C(=N\C#N)NC1C2CC3CC1CC(S(C)(=O)=O)(C3)C2 (centres unmarked) [Example 18, (1E)-2-(2-Chloro-4-fluorophenoxy)-N-cyano-2-methyl-N-[(E)-5-(methylsulfonyl)-2-adamantyl]propanimidamide] |
| 10 to 100 | CC(C)(Oc1ccc(Cl)cc1)C(=NC#N)NC1CCCCCCC1 [Example 41, 2-(4-Chlorophenoxy)-N′-cyano-N-cyclooctyl-2-methylpropanimidamide] |
| 10 to 100 | CC(C)(Oc1ccc(Cl)cc1F)C(=NC#N)NC12CC3CC(CC(C3)C1)C2 [Example 60] |
| 100 to 1000 | CC(C)(Oc1ccc(F)cc1F)C(=NC#N)NC1CCCCCCC1 [Example 65, N′-cyano-N-cyclooctyl-2-(2,4-difluorophenoxy)-2-methylpropanimidamide] |
| 100 to 1000 | N#CN=C(NC1C2CC3CC1CC(O)(C3)C2)C1(Oc2cccc(Cl)c2)CCC1 (centres unmarked) [Example 15, 1-(3-Chlorophenoxy)-N′-cyano-N-[(E)-5-hydroxy-2-adamantyl]cyclobutane carboximidamide] |
| ≤ 10 | CC(C)(Oc1ccccc1)/C(=N\C#N)N[C@@H]1[C@@H]2C[C@@H]3C[C@H]1C[C@@](C(N)=O)(C3)C2 [Example 50, (E)-4-{[(1E)-N-cyano-2-methyl-2-phenoxypropanimidoyl]amino}adamantane-1-carboxamide] |

| Ki [nM] | Compound |
| --- | --- |
| ≤ 10 | CC(C)(Oc1ccc(Cl)cc1)C(=NC#N)NC1C2CC3CC1CC(C(N)=O)(C3)C2 (centres unmarked) [Example 14, (E)-4-{[(1E)-2-(4-Chlorophenoxy)-N-cyano-2-methylpropanimidoyl]amino}adamantane-1-carboxamide] |
| 100 to 1000 | COC(=O)C12CC3CC(C1)C(NC(=NC#N)C(C)(C)N1CCN(c4ccc(C(F)(F)F)cn4)CC1)C(C3)C2 (centres unmarked) [Example 29, Methyl(E)-4-[((1E)-N-cyano-2-methyl-2-{4-[5-(trifluoromethyl)pyridin-2-yl]piperazin-1-yl}propanimidoyl)amino]adamantane-1-carboxylate] |
| 100 to 1000 | CON=C(NC1C2CC3CC1CC(S(C)(=O)=O)(C3)C2)C(C)(C)Oc1ccc(Cl)cc1 (centres unmarked) [Example 13, (1E)-2-(4-Chlorophenoxy)-N-methoxy-2-methyl-N-[(E)-5-(methylsulfonyl)-2-adamantyl]propanimidamide] |
| 10 to 100 | CC(C)(Oc1ccc(Cl)cc1)/C(=N\C#N)N[C@@H]1[C@@H]2C[C@@H]3C[C@H]1C[C@@](C#N)(C3)C2 [Example 37, (1E)-2-(4-Chlorophenoxy)-N′-cyano-N-[(E)-5-cyano-2-adamantyl]-2-methylpropanimidamide] |
| ≤ 10 | CC(C)(Oc1ccccc1)/C(=N\C#N)NC1C2CC3CC1CC(S(C)(=O)=O)(C3)C2 (centres unmarked) [Example 64, (1E)-N-cyano-2-methyl-N-[(E)-5-(methylsulfonyl)adamantan-2-yl]-2-phenoxypropanimidamide] |
| 10 to 100 | CC(C)(Oc1ccc(Cl)cc1)C(=NC#N)NC12CC3CC(CC(C3)C1)C2 [Example 43] |
| 10 to 100 | COC(=O)C12CC3CC(C1)C(N/C(=N/C#N)C(C)(C)Oc1ccc(Cl)cc1F)C(C3)C2 (centres unmarked) [Example 63, methyl(E)-4-{[(1E)-2-(4-chloro-2-fluorophenoxy)-N-cyano-2-methylpropanimidoyl]amino}adamantane-1-carboxylate] |
| ≤ 10 | CC(C)(Oc1ccc(Cl)cc1)C(=NC#N)NC1C2CC3CC1CC(O)(C3)C2 (centres unmarked) [Example 8, (1E)-2-(4-Chlorophenoxy)-N′-cyano-N-[(E)-5-hydroxy-2-adamantyl]-2-methylpropanimidamide] |
| 10 to 100 | CC(C)(OCc1ccc(C(F)(F)F)cc1)C(=NC#N)NC1C2CC3CC1CC(C(=O)O)(C3)C2 (centres unmarked) [Example 24, (E)-4-[((1E)-N-Cyano-2-methyl-2-{[4-(trifluoromethyl)benzyl]oxy}propanimidoyl)amino]adamantane-1-carboxylic acid] |
| 100 to 1000 | COC(=O)C12CC3CC(C1)C(NC(=S)C(C)(C)OCc1ccc(C(F)(F)F)cc1)C(C3)C2 (centres unmarked) [Example 16, Methyl(E)-4-[(2-methyl-2-{[4-(trifluoromethyl)benzyl]oxy}propanethioyl)amino]adamantane-1-carboxylate] |
| 10 to 100 | CC(C)(Oc1ccccc1F)C(=NC#N)NC1C2CC3CC1CC(S(N)(=O)=O)(C3)C2 (centres unmarked) [Example 79, (1E)-N′-cyano-2-(2-fluorophenoxy)-2-methyl-N-[(E)-5-sulfamoyladamantan-2-yl]propanimidamide] |
| 10 to 100 | CC(C)(Oc1ccc(Cl)cc1)C(=NC#N)NC1C2CC3CC1CC(S(C)(=O)=O)(C3)C2 (centres unmarked) [Example 19, (1E)-2-(4-Chlorophenoxy)-N-cyano-2-methyl-N-[(E)-5-(methylsulfonyl)-2-adamantyl]propanimidamide] |
| 10 to 100 | CC(C)(Oc1ccc(Cl)cn1)C(=NC#N)NC1C2CC3CC1CC(C(N)=O)(C3)C2 (centres unmarked) [Example 75, (E)-4-({(1E)-2-[(5-chloropyridin-2-yl)oxy]-N-cyano-2-methylpropanimidoyl}amino)adamantane-1-carboxamide] |
| 100 to 1000 | CC(C)(C(=NC#N)NC1C2CC3CC1CC(C(N)=O)(C3)C2)N1CCN(c2ccc(C(F)(F)F)cn2)CC1 (centres unmarked) [Example 31, (E)-4-[((1E)-N-Cyano-2-methyl-2-{4-[5-(trifluoromethyl)pyridin-2-yl]piperazin-1-yl}propanimidoyl)amino]adamantane-1-carboxamide] |
| 100 to 1000 | CC(C)(Oc1ccc(Cl)cc1F)C(=NC#N)NC1CC2CCC1C2 (stereo not drawn) [Example 66, N-(exo-bicyclo[2.2.1]hept-2-yl)-2-(4-chloro-2-fluorophenoxy)-N-cyano-2-methylpropanimidamide] |

| Compound | Ki [nM] |
| --- | --- |
| CC(C)(Oc1ccc(Cl)cc1F)/C(=N\C#N)NC1CN2CCC1CC2 (centres unmarked) [Example 72, (1E)-N-(1-azabicyclo[2.2.2]oct-3-yl)-2-(4-chloro-2-fluorophenoxy)-N′-cyano-2-methylpropanimidamide] | > 1000 |

Source: US8507493B2 (AbbVie Inc., priority 2009, dated 2013)
